Where “and” joins values, the source holds several entries; their conditions need not be identical. Equal entries are not always repeated.
System: 415267-285-R-J2-PDC complex spheroid viability
Experiment: Anticancer human tumor 415267-285-R-J2-PDC patient-derived breast carcinoma cell line growth inhibition [POLQ]
Conditions: for viability, T/C: stronger effect = lower value; active = viability on the fitted dose curve at most 10% of control; inactive = the rest
Procedure: Multicellular complex tumor spheroid response to Polymerase (POL) inhibitors (novobiocin, ART-558, RP6685) in combination with a variety of drugs and investigational agents in selected tumor cell lines
The POL inhibitors (novobiocin, ART-558, and RP6685) were evaluated both individually and in combination with standard of care and investigational anticancer small molecules within a complex spheroid model of solid tumors. . Complex spheroids include a stromal component modeled by human endothelial cells (HUVEC) and fibroblasts modeled by human mesenchymal stem cells (MSCs). The concentration ranges selected for each drug and investigational agent were based upon clinically achievable concentrations if the clinical Cmax of the agent was known.
Compounds. The drugs and investigational agents: novobiocin (NSC847541), ART-558 (NSC835418), RP-6685 (NSC848927), peposertib (NSC802822), ceralasertib (NSC780249), elimusertib (NSC800525), camonsertib (NSC841442), AZD-1390 (NSC803789), olaparib (NSC753686), talazoparib (NSC767125), rucaparib (NSC756644), sotorasib (NSC818433), MRTX-1133 (NSC836407), SN-38 (NSC673596), topotecan (NSC609699), epotoside (NSC141540), doxorubicin (NSC123127), gemcitabine (NSC613327), 5-fluorouracil (NSC19893), paclitaxel (NSC125973), vemurafenib (NSC761431), MSA-2 (NSC828583), SN-011 (NSC837082), adavosertib (NSC754352), prexasertib (NSC758257), carboplatin (NSC241240) and oxaliplatin (NSC266046), were obtained from the National Cancer Institute (NCI) Developmental Therapeutics Program Chemical Repository (21). The FDA-approved anticancer drug set is available from the Developmental Therapeutics Program at https://dtp.cancer.gov/organization/dscb/obtaining/. […] The stock solutions were prepared in dimethyl sulfoxide (DMSO, Sigma-Aldrich, St. Louis, MO, cat. D2650), except for the platinum compounds which were prepared in saline (Quality Biological, Gaithersburg, MD, cat. 114-055-101), at 800-fold the tested concentration and stored at -70 degrees C prior to their use. All drugs and investigational agents were tested over a range starting from a high concentration at or near the clinical Cmax and decreasing in half-log increments. If the clinical Cmax for an agent had not been determined, the highest concentration tested was 10 microM, except for SN-38, which was tested at a high concentration of 1 microM.
Cell Culture. All cells were maintained in an incubator at 37 degrees C and 5% CO2 with 95% humidity. The PDC lines were cultured according to standard operating procedures established by the NCI PDMR (https://pdmr.cancer.gov). Table 3 of the manuscript, lists the cell lines along with the number of the three cell types plated to form the mct-spheroids and media for tumor cell growth. After thawing, all PDC lines, except 997537-175-T-J1-PDC and 415267-285-R-J2-PDC, were cultured in Matrigel-coated flasks prepared with a working solution of 1X Ham's F-12 nutrient mix, without supplementation (Thermo Fisher Scientific, cat. 11765054), 100 U/mL penicillin-streptomycin (Thermo Fisher Scientific, cat. 15140122), and 2.5% Matrigel (Corning Inc., Corning, NY, cat. 354248) for the first three passages. The two PDC lines 997537-175-T-J1-PDC and 415267-285-R-J2-PDC were cultured on uncoated flasks. The 857933-349-R-J2-PDC line was cultured in 6C/Colon 1B media containing advanced DMEM/F-12 (Thermo Fisher Scientific, cat. 12634028), 10 mM HEPES (Thermo Fisher Scientific, cat. 15630080), 1X GlutaMAX supplement (Thermo Fisher Scientific, cat. 35050061), 0.1 mg/mL primocin (InvivoGen, San Diego, CA, cat. ant-pm-2), 10% defined fetal bovine serum, heat inactivated (HyClone Laboratories Inc., Logan, UT, cat. SH30070.03HI), 50% L-WRN conditioned media (ATCC, cat. CRL-3276), 1.25 mM N-Acetyl-L-cysteine (Sigma-Aldrich, cat. A9165), 10 mM nicotinamide (Sigma-Aldrich, cat. N0636), 1X B-27 supplement (Thermo Fisher Scientific, cat. 17504044), 1X N-2 supplement (Thermo Fisher Scientific, cat. […]

[1] = curve of first compound, second compound 0.0316 µM
[2] = curve of first compound, second compound 0.1 µM
[3] = curve of first compound, second compound 0.316 µM
[4] = curve of first compound, second compound 1 µM
[5] = curve of first compound, second compound 3.16 µM
[6] = curve of first compound, second compound 10 µM
[7] = second compound 0.0316 µM, first compound 0.0316 µM
[8] = second compound 0.0316 µM, first compound 0.1 µM
[9] = second compound 0.0316 µM, first compound 0.316 µM
[10] = second compound 0.0316 µM, first compound 1 µM
[11] = second compound 0.0316 µM, first compound 3.16 µM
[12] = second compound 0.0316 µM, first compound 10 µM
[13] = second compound 0.1 µM, first compound 0.0316 µM
[14] = second compound 0.1 µM, first compound 0.1 µM
[15] = second compound 0.1 µM, first compound 0.316 µM
[16] = second compound 0.1 µM, first compound 1 µM
[17] = second compound 0.1 µM, first compound 3.16 µM
[18] = second compound 0.1 µM, first compound 10 µM
[19] = second compound 0.316 µM, first compound 0.0316 µM
[20] = second compound 0.316 µM, first compound 0.1 µM
[21] = second compound 0.316 µM, first compound 0.316 µM
[22] = second compound 0.316 µM, first compound 1 µM
[23] = second compound 0.316 µM, first compound 3.16 µM
[24] = second compound 0.316 µM, first compound 10 µM
[25] = second compound 1 µM, first compound 0.0316 µM
[26] = second compound 1 µM, first compound 0.1 µM
[27] = second compound 1 µM, first compound 0.316 µM
[28] = second compound 1 µM, first compound 1 µM
[29] = second compound 1 µM, first compound 3.16 µM
[30] = second compound 1 µM, first compound 10 µM
[31] = second compound 3.16 µM, first compound 0.0316 µM
[32] = second compound 3.16 µM, first compound 0.1 µM
[33] = second compound 3.16 µM, first compound 0.316 µM
[34] = second compound 3.16 µM, first compound 1 µM
[35] = second compound 3.16 µM, first compound 3.16 µM
[36] = second compound 3.16 µM, first compound 10 µM
[37] = second compound 10 µM, first compound 0.0316 µM
[38] = second compound 10 µM, first compound 0.1 µM
[39] = second compound 10 µM, first compound 0.316 µM
[40] = second compound 10 µM, first compound 1 µM
[41] = second compound 10 µM, first compound 3.16 µM
[42] = second compound 10 µM, first compound 10 µM
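Note: spheroids exposed to compounds for one week before readout.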
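Throughout, for viability, T/C: luminescence used as stand-in measure of viable cells.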

COc1cc2cc(C(=O)CCC(=O)O)sc2cc1OC + Nc1ccc(C#CCN(C(=O)Cc2ncc(C(F)(F)F)cc2C(F)(F)F)c2ccc(F)cc2)nn1
inactive: viability, T/C [7] 108% | viability, T/C [8] 95.4% | viability, T/C [9] 93.7% | viability, T/C [10] 97.3% | viability, T/C [11] 93.8% | viability, T/C [12] 97.3% | viability, T/C [13] 111% | viability, T/C [14] 105% | viability, T/C [15] 94.2% | viability, T/C [16] 98.2% | viability, T/C [17] 92.5% | viability, T/C [18] 95.1% | viability, T/C [19] 111% | viability, T/C [20] 103% | viability, T/C [21] 91.8% | viability, T/C [22] 89.9% | viability, T/C [23] 98.9% | viability, T/C [24] 85.9% | viability, T/C [25] 103% | viability, T/C [26] 88.9% | viability, T/C [27] 96.6% | viability, T/C [28] 102% | viability, T/C [29] 96.5% | viability, T/C [30] 91.2% | viability, T/C [31] 105% | viability, T/C [32] 92% | viability, T/C [33] 101% | viability, T/C [34] 98.9% | viability, T/C [35] 94.3% | viability, T/C [36] 109% | viability, T/C [37] 101% | viability, T/C [38] 97.4% | viability, T/C [39] 100% | viability, T/C [40] 106% | viability, T/C [41] 97.9% | viability, T/C [42] 96.5%
> 10 µM: IC50 [1] | IC50 [2] | IC50 [3] | IC50 [4] | IC50 [5] | IC50 [6]

Nc1ccn(C2OC(CO)C(O)C2(F)F)c(=O)n1 (stereo not drawn)
< 0.0316 µM: IC50 (curve of compound)
active: viability, T/C (compound 0.1 µM) 5.29% and 5.02% and 7.12% | viability, T/C (compound 0.316 µM) 6.27% and 4.87% and 6.14% | viability, T/C (compound 1 µM) 5.28% and 7.75% and 7.66% | viability, T/C (compound 3.16 µM) 5.29% and 4.37% and 5.37% | viability, T/C (compound 10 µM) 6.07% and 4.68% and 5.14%

COc1cccc2c1C(=O)c1c(O)c3c(c(O)c1C2=O)CC(O)(C(=O)CO)CC3OC1CC(N)C(O)C(C)O1 (stereo not drawn) + COC1C(OC(N)=O)C(O)C(Oc2ccc3c(O)c(NC(=O)c4ccc(O)c(CC=C(C)C)c4)c(=O)oc3c2C)OC1(C)C
0.039 µM: IC50 [5]
0.0375 µM: IC50 [2]
active: viability, T/C [9] 5.33% | viability, T/C [10] 1.27% | viability, T/C [11] 0.99% | viability, T/C [12] 3% | viability, T/C [15] 5.82% | viability, T/C [16] 0.96% | viability, T/C [17] 1.01% | viability, T/C [18] 2.7% | viability, T/C [21] 4.95% | viability, T/C [22] 0.99% | viability, T/C [23] 0.89% | viability, T/C [24] 2.53% | viability, T/C [27] 5.43% | viability, T/C [28] 1.06% | viability, T/C [29] 1.03% | viability, T/C [30] 2.68% | viability, T/C [33] 4.68% | viability, T/C [34] 1.06% | viability, T/C [35] 1.25% | viability, T/C [36] 2.55% | viability, T/C [39] 5.78% | viability, T/C [40] 1.44% | viability, T/C [41] 1.38% | viability, T/C [42] 3.32%
< 0.0316 µM: IC50 [4]
0.044 µM: IC50 [6]
0.0446 µM: IC50 [1]
0.0352 µM: IC50 [3]
inactive: viability, T/C [7] 66.1% | viability, T/C [8] 12.3% | viability, T/C [13] 55.7% | viability, T/C [14] 17.9% | viability, T/C [19] 54.2% | viability, T/C [20] 12% | viability, T/C [25] 48.8% | viability, T/C [26] 11.6% | viability, T/C [31] 58.4% | viability, T/C [32] 12.5% | viability, T/C [37] 63.9% | viability, T/C [38] 16%

C#Cc1c(F)ccc2cc(O)cc(-c3ncc4c(N5CC6CCC(C5)N6)nc(OCC56CCCN5CC(F)C6)nc4c3F)c12 (stereo not drawn)
inactive: viability, T/C (compound 0.0316 µM) 106% and 95.4% and 97.2% | viability, T/C (compound 0.1 µM) 103% and 112% and 92.5% | viability, T/C (compound 0.316 µM) 102% and 106% and 94.2% | viability, T/C (compound 1 µM) 107% and 109% and 97.7% | viability, T/C (compound 3.16 µM) 106% and 91.5% and 101% | viability, T/C (compound 10 µM) 101% and 98% and 104%
> 10 µM: IC50 (curve of compound)

O=C(Nc1ccc(O)c(NS(=O)(=O)c2ccc(F)cc2)c1)c1ccc(-c2ccccc2)cc1
inactive: viability, T/C (compound 0.0316 µM) 111% and 102% and 103% | viability, T/C (compound 0.1 µM) 108% and 97.2% and 98.4% | viability, T/C (compound 0.316 µM) 107% and 98.6% and 103% | viability, T/C (compound 1 µM) 92.3% and 107% and 105% | viability, T/C (compound 3.16 µM) 109% and 101% and 98.1% | viability, T/C (compound 10 µM) 68.7% and 71.7% and 46.8%
> 10 µM and 9.32 µM: IC50 (curve of compound)

COc1cccc2c1C(=O)c1c(O)c3c(c(O)c1C2=O)CC(O)(C(=O)CO)CC3OC1CC(N)C(O)C(C)O1 (stereo not drawn)
9.21% and 18.3% and 12.6%: viability, T/C (compound 0.1 µM)
< 0.0316 µM and 0.0581 µM: IC50 (curve of compound)
active: viability, T/C (compound 0.316 µM) 5.21% and 3.68% and 5.75% | viability, T/C (compound 1 µM) 0.77% and 1.01% and 0.92% | viability, T/C (compound 3.16 µM) 2.13% and 1.47% and 1.31% | viability, T/C (compound 10 µM) 2.79% and 3.72% and 2.89%
inactive: viability, T/C (compound 0.0316 µM) 35.4% and 85.5% and 41%

CC(C)n1c(=O)n(C)c2cnc3cc(F)c(-c4ccc(OCCCN5CCCCC5)nc4)cc3c21
> 10 µM: IC50 (curve of compound)
inactive: viability, T/C (compound 0.0316 µM) 92.3% and 106% and 90.9% | viability, T/C (compound 0.1 µM) 97% and 105% and 101% | viability, T/C (compound 0.316 µM) 102% and 115% and 91.9% | viability, T/C (compound 1 µM) 112% and 121% and 108% | viability, T/C (compound 3.16 µM) 110% and 108% and 96.3% | viability, T/C (compound 10 µM) 83.6% and 103% and 97.1%

— PubChem BioAssay AID1963847 (Molecular Pharmacology Branch, DTP, NCI, 2024)
